Test results from publication PMC9607599, “Dual Targeting Ligands—Histamine H3 Receptor Ligands with Monoamine Oxidase B Inhibitory Activity—In Vitro and In Vivo Evaluation” (Pharmaceutics, 2022).
Several values for one entry are separate records, joined by “and”; a condition that tells them apart may be missing. Equal values may be shown once.

What was measured:
[1] = target: T1, MAO B in rat cerebral cortex (Rattus norvegicus, UniProt P19643); experiment: MAO B activity in cerebral cortex homogenates after sub-chronic administration (radioassay); assay type: in vivo; conditions: 3 mg/kg/day s.c. for 6 days
T1 construct: from tissue; host or cells: cerebral cortex homogenate of male Wistar rats
T1 sequence (P19643 1-520): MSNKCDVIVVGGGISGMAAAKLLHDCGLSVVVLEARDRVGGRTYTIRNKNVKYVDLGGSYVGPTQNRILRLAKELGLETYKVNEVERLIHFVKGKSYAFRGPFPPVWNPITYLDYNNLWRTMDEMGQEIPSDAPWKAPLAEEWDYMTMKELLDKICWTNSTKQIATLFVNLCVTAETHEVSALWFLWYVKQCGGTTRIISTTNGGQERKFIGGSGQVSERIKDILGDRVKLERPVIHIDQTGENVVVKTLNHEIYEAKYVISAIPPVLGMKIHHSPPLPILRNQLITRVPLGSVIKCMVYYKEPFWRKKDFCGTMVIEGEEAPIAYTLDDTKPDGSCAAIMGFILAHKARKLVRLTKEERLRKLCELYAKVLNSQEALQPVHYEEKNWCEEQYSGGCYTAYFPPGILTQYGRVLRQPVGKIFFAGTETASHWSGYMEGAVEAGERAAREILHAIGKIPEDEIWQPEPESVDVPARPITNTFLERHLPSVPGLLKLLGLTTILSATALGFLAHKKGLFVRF
Description: (§1) The compound 13 was given to intact Wistar rats to verify its impact on the metabolism of biogenic amines in the brain (cerebral amines and their metabolites concentrations as well as activities of metabolizing enzymes). […] Both drugs (3 mg/kg body mass, dissolved in 0.9% NaCl) were given subcutaneously for 6 consecutive days. Control rats were injected with 200 μL of 0.9% NaCl.
(§2) Tissues were collected and properly prepared for subsequent biochemical analyzes. The brain was quickly removed from the skull and the selected structures (hypothalamus, striatum, cerebral cortex) were dissected according to the method by Glowinsky and Iversen, immediately frozen in liquid nitrogen and kept at −80 °C until assayed.
(§3) MAO A and MAO B activities were estimated in cerebral homogenates with radioassays using 5-[2-^14C]-hydroxytryptamine binoxalate (final conc. 200 µM) and β-[ethyl-1-^14C]-phenylethylamine hydrochloride (final conc. 20 µM), as well as specific inhibitors—clorgyline and deprenyl (final conc. 10^−9 M), respectively.
(§4) The enzyme activities are expressed as pmol/min/mg protein. Protein concentration was analyzed by Lowry’s method.

[2] = target: T2, HNMT in rat cerebral cortex (Rattus norvegicus, UniProt Q01984); experiment: histamine N-methyltransferase activity after sub-chronic administration (radioenzymatic); assay type: in vivo; conditions: 3 mg/kg/day s.c. for 6 days
T2 construct: from tissue; host or cells: cerebral cortex of male Wistar rats
Description: as §1, §2
Histamine N-methyltransferase activity was determined radioenzymatically according to Taylor and Snyder by measurements of radioactive N-tele-methylhistamine formed in a transmethylation reaction catalyzed by the enzyme, as previously described. S-adenosyl-L-(methyl-^14C)-methionine was used as a donor of methyl group.
as §4

[3] = target: T3, MAO A in rat cerebral cortex (Rattus norvegicus, UniProt P21396); experiment: MAO A activity in cerebral cortex homogenates after sub-chronic administration (radioassay); assay type: in vivo; conditions: 3 mg/kg/day s.c. for 6 days
T3 construct: from tissue; host or cells: cerebral cortex homogenate of male Wistar rats
T3 sequence (P21396 1-526): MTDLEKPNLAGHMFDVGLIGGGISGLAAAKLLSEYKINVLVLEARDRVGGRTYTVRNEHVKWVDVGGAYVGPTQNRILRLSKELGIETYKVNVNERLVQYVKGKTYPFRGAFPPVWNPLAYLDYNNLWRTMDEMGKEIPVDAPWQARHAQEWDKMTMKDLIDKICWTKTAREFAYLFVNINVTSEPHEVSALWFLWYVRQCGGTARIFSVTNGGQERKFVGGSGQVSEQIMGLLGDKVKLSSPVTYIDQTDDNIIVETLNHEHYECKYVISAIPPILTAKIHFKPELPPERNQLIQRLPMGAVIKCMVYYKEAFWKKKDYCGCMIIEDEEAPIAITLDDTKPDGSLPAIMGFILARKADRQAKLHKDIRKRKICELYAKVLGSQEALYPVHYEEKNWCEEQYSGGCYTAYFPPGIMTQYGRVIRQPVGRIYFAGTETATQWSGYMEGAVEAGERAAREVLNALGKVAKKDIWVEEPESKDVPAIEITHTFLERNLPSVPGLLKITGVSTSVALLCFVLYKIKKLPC
Description: as §1, §2, §3, §4

[4] = MTT cell viability test on human astrocytes; assay type: cell-based; conditions: human; 24 h; at 0.15 and 0.25 mg/mL; read-out: decline in cell viability in comparison to the control level
Description: The studies were performed on a commercially-available astrocyte cell line isolated from human cerebral cortex (ScienCell Research Laboratories, San Diego, CA, USA; Cat no. 1800). The cells (passage 7–8) were seeded into a 96-well plate at an amount of 10,000 cells/well and kept in accordance with the ScienCell Research Laboratories’ protocol, i.e., in astrocyte medium supplemented with 2% fetal bovine serum, 10% astrocyte growth supplement and 1% penicillin/streptomycin solution, in an atmosphere with 5% CO2 at 37 °C. The cells were allowed to grow for 24 h and then treated with increasing concentrations of test compounds (0.01–0.25 mg/mL) for 24 and 72 h. Astrocytes in the medium on each plate (regardless of the factors tested) were used as a positive control.
The viability of the astrocyte cell line was determined calorimetrically using 3-(4,5-dimethylthazol-2-yl)-2,5-diphenyltetrazolium bromide (MTT; Sigma-Aldrich Chemical Co. Ltd., Saint Louis, MO, USA) as described earlier. […] After the incubation time (24 or 72 h) with examined drugs, 50 μL MTT solution (1 mg/mL) was added to each well of the plate for another 4 h. The method is based on the reduction of a yellow tetrazolium salt (MTT) into purple formazan crystals by mitochondrial succinate-tetrazolium reductase system which is metabolically active in viable cells. At the end of the experiment, the cells were treated with 100 μL dimethyl sulphoxide, which enabled the release of the reaction product.
The absorbance was measured at 570 nm using a BioTek EL×800 microplate reader (BioTek, Winooski, Vermont, USA) and results were expressed as a percentage of the absorbance measured in control cells. The obtained values were plotted against different concentrations of each compound to calculate the viability inhibition concentration at 50% (IC50) using GraphPad Prism 6.07 (GraphPad Software, Inc., San Diego, CA, USA). The experiment was repeated in quadruplicate.
For the cytotoxicity assessment in the MTT assays, each test drug was used at 8 concentrations (range: 0.01–0.25 mg/mL).

[5] = parallel artificial membrane permeability assay (PAMPA); assay type: in vitro ADME

T2 sequence (Q01984 whole entry): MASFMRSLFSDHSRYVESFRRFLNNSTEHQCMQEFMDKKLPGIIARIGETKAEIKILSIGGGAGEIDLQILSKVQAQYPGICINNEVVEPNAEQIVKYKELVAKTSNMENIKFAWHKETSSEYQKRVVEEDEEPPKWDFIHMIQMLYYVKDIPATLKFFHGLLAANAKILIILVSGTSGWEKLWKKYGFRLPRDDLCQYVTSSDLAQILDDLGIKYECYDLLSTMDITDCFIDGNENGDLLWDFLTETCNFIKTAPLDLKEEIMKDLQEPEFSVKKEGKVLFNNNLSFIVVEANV

Row | SMILES | MAO B activity in cerebral cortex [1] | decline in MAO B activity in rat cerebral cortex ([1]; vs control) | HNMT activity [2] | inhibition at 3 mg/kg ([3]; rat, sc, data not shown) | viability at 24 h [4] | permeability in PAMPA, in words [5] | Pe (×10^−6cm/s) ± SD ([5]; PAMPA, triplicate, breakpoint for permeable compounds Pe ≥ 1.5×10^−6 cm/s) | Papp ([5]; PAMPA, triplicate, breakpoint for permeable compounds Pe ≥ 1.5×10^−6 cm/s, read-out: Pe ± SD) | MAO B activity vs control, in words [1] | MAO A activity vs control, in words [3]
1 | CC1CCCN1CCCOc1ccc(C(C)(C)C)cc1.O=C(O)C(=O)O (centres unmarked) [Compound 13, 1-(3-(4-(tert-Butyl)phenoxy)propyl)-2-methylpyrrolidine hydrogen oxalate] | 48.38 ± 12.02 pmol/min/mg protein | 91.7% and > 90% | 40.09 ± 1.77 pmol/min/mg of protein | 12% | > 95% | high permeability | 16.72 ×10^−6cm/s | 16.72 ± 0.06 ×10⁻⁶ cm/s | – | –
2 | Clc1ccc(CCCOCCCN2CCCCC2)cc1 [Pitolisant, 3-(4-chlorophenyl)propyl 3-piperidinopropyl ether, reference compound] | – | – | 42.51 ± 1.40 pmol/min/mg of protein | – | – | – | – | – | close to that recorded in control animals | close to that recorded in control animals
